Reference: patent US5780509A, “Compound bearing two, 2,6-diiodophenol-4-YL groups and diagnostic drug for iodine allergy” (Muromachi Kagaku Kogyo Kaisha, Ltd., priority 1994, dated 1998)
Non-standard residues stand in square brackets, D forms with d. Residues, ends and D or L forms follow the SMILES beside them. Tyr(3,5-I2) = N[C@@H](Cc1cc(I)c(O)c(I)c1)C(=O)O

Columns and labels:
[1] = system: guinea-pigs immunized with iodine (iodine-sensitized) and non-sensitized guinea-pigs; experiment: Active cutaneous anaphylaxis (ACA) reaction, elicitation antigenicity; assay type: in vivo, guinea-pig (male SPF, Hartley strain); set-up: key to Mean diameter of blue spots, non-sensitized guinea-pig / Mean diameter of blue spots, iodine-sensitized guinea pig (second value) / Mean diameter of blue spots, iodine-sensitized guinea pig (first value): --: Negative response; **: Weak response; settings: for Mean diameter of blue spots, iodine-sensitized guinea pig (first value) / Mean diameter of blue spots, iodine-sensitized guinea pig (second value) / Mean diameter of blue spots, non-sensitized guinea-pig: 30 min
Source text: The elicitation antigenicity of iodinated tyrosine derivatives was studied in the bases of the active cutaneous anaphylaxis (ACA) reaction in guinea-pigs immunized with iodine.
Animals: Male SPF guinea-pigs of Hartley strain, weighing 300~350 g were purchased from Charles River Japan Co., Ltd. These were immunized after having been acclimated for one week.
Sensitization: A solution of iodine potassium iodide (Wako Junyaku, special grade reagent) and complete Freund's adjuvant (Difco) were mixed in equal amounts to form an emulsion. This was administered subcutaneously into the back of guinea-pigs at a dose of 2 mg of iodine per animal 3 times at intervals of 2 weeks. Active cutaneous anaphylaxis (ACA) was elicited 2 weeks after the last sensitization injection.
ACA Induction: 2% Evans blue physiological solution (0.5 ml/animal) was administered intravenously to guinea-pigs, and immediately thereafter 0.1 ml of an elicitation antigen was administered intradermally into the back, and after 30 min. the existence of pigment leakage at the intradermally injected sites was observed.
Elicitation antigen: Iodinated dityrosine, iodinated trityrosine, iodinated dityrosylphenylalanine were administered intracutaneously at 0.1 ml/site. Guinea-pig serum albumin (fraction V: Sigma) was iodinated and used as a positive control. Corresponding noniodinated ones were also administered intradermally as negative controls.
Iodination reaction: To a 50 mM boric acid buffer solution (pH 9.5) of 10 mg/ml of dityrosine, trityrosine, or dityrosylphenylalanine (all produced by Sigma Co., Ltd.) or guinea-pig serum albumin (abbreviated hereafter as GSA), a 0.5M solution of iodine was added at a ratio of 10:1, and these were reacted at 37 C. overnight. The excess iodine in the reaction mixture was reduced by adding sodium thiosulfate (Nakarai Chemical Co., Ltd.). For purification of the iodinated tyrosine derivatives, the reaction mixture was extracted with ethyl acetate and dried with magnesium sulfate, and hexane was added to obtain crystals. For purification of the iodinated GSA, the reaction mixture was purified by passing it through a Sephadex G25 column.

[2] = system: guinea-pigs; experiment: Active systemic anaphylaxis (ASA) reaction, sensitization antigenicity; assay type: in vivo, guinea-pig
Source text: (§1) Sensitization antigenicity of iodinated tyrosine derivative was studied.
(§2) Trityrosine was selected as the tyrosine derivative, and this was iodinated to obtain iodinated trityrosine. Guinea-pigs were sensitized with iodinated trityrosine. As a positive control, employed was iodinated guinea-pig serum albumin (GSA). Guinea-pigs of the control group were sensitized with iodinated GSA. Sensitization was examined by active systemic anaphylaxis (ASA) reaction and passive cutaneous anaphylaxis (PCA) reaction.
(§3) Sensitization: Each of iodinated trityrosine and iodinated GSA was emulsified with complete Freund's adjuvant, and injected subcutaneously to the back of animals at a dose of 10 mg/animal (2.5 mg, respectively, at 4 sites), 3 times at intervals of 2 weeks.
ASA reaction: Iodinated GSA (1 mg/animal) was injected intravenously to the animals one week after the last sensitization injection, by which ASA reaction was elicited. The animals which indicated symptoms of anaphylactic shock were judged as being positive.

[3] = system: guinea-pigs; experiment: Passive cutaneous anaphylaxis (PCA) reaction, sensitization antigenicity; assay type: in vivo, guinea-pig
Source text: as §1, §2, §3
PCA reaction: The blood was taken from each animal, and the serum was separated one week after the last sensitization injection. The serum was diluted fivefold with physiological saline, and injected intradermally to normal guinea-pigs at a dose of 0.1 ml/site. PCA reaction was provoked by intravenous injection of iodinated GSA (1 mg/animal) and Evans blue solution to the recipient animals 4 hours after the intradermal serum injection. PCA reaction was judged as being positive when the diameter of blue spot at the site of intradermal injection was 5 mm or larger.

[4] = system: anti-iodine antibody; experiment: ELISA inhibition potency (OD50) on anti-iodine antibody; assay type: binding, guinea-pig; settings: serial twofold dilution, equal volume of 50-fold diluted anti-iodine antiserum; read-out: Inhibitory activity (OD50): concentration which decreased optical density of ELISA to a half of the control
Procedure: Guinea-pigs were immunized with iodine by injecting subcutaneously 1 mg of iodine containing potassium iodide solution treated with complete Freund's adjuvant seven times at intervals of 2 weeks, and anti-iodine antiserum was obtained from these animals. Antibody titers of the sera were determined by enzyme linked immunosorbent assay (ELISA) using 96 well microplate coated with iodinated guinea pig serum albumin (I-GSA) ELISA inhibition activities of the following compounds were studied. The compounds used were potassium iodide, tyrosine and its derivatives such as L-tyrosine, monoiodo-L-tyrosine, diiodotyrosine, hexaiodo-L-trityrosine, L-hexatyrosine and 12 iodo-L-hexatyrosine, and iodinated X-ray contrast media such as amidotrizoic acid, iodamide, ioxaglic acid, iohexol, iopamidol and iomeprol.
ELISA inhibition study was performed as follows. Antibody concentration of anti-iodine antiserum gave the maximum optical density in ELISA till one hundredfold serum dilution. Accordingly, seven steps of twofold serial dilution of anti-iodine antiserum, starting from 50-fold serum dilution, were made with physiological saline as a diluent. To each of the serially diluted sera, were added equal volume of solution containing each of the test compounds described above. After overnight incubation at 4 C, antibody activity was determined by ELISA. Phosphate buffered physiological saline (PBS) was used as a control. ELISA inhibitory activities of the test compounds were determined at the serum dilution which gave about 50% of the maximum optical density (OD415nm =2.6) of ELISA of control at serum dilution of one hundredfold. The inhibitory activity was calculated by the following calculation formula.
In the next, ELISA inhibition study was undertaken to determine the potency of ELISA inhibitory activity of active compounds. […] The inhibitory activity was expressed as the concentration which decreased optical density of ELISA to a half (OD50) of the control.

**Q.** How did the “Mean diameter of blue spots, iodine-sensitized guinea pig (first value)” value (shortened to “Mean diameter of blue spots … (first value)”) ([1]; 1 μg/site intradermal) turn out when `N[C@@H](Cc1cc(I)c(O)c(I)c1)C(=O)N[C@@H](Cc1cc(I)c(O)c(I)c1)C(=O)N[C@@H](Cc1cc(I)c(O)c(I)c1)C(=O)O` [Iodinated trityrosine, hexaiodo-L-trityrosine] (H-[Tyr(3,5-I2)]-[Tyr(3,5-I2)]-[Tyr(3,5-I2)]-OH) was run?
**A.** 6.0 mm

**Q.** And the “Mean diameter of blue spots, iodine-sensitized guinea pig (second value)” value (“Mean diameter of blue spots … (second value)” for short) ([1]; 1 μg/site intradermal)?
**A.** --

**Q.** What about the “Mean diameter of blue spots, non-sensitized guinea-pig” value ([1]; 1 μg/site intradermal) of the same molecule?
**A.** --

**Q.** And the “Mean diameter of blue spots … (first value)” value ([1]; 10 μg/site intradermal)?
**A.** 8.5 mm

**Q.** What about the “Mean diameter of blue spots … (second value)” value ([1]; 10 μg/site intradermal) of the same molecule?
**A.** 4.0 mm

**Q.** And the “Mean diameter of blue spots, non-sensitized guinea-pig” value ([1]; 10 μg/site intradermal)?
**A.** --

**Q.** What about the “Mean diameter of blue spots … (first value)” value ([1]; 100 μg/site intradermal) of the same molecule?
**A.** 11.0 mm

**Q.** And the “Mean diameter of blue spots … (second value)” value ([1]; 100 μg/site intradermal)?
**A.** 6.0 mm

**Q.** And the “Mean diameter of blue spots, non-sensitized guinea-pig” value ([1]; 100 μg/site intradermal)?
**A.** --

**Q.** What about the “ACA reaction (in words)” value ([1]; intradermal injection, guinea-pigs sensitized with iodine) of the same molecule?
**A.** ACA reaction was elicited

**Q.** What about the “ASA reaction: number of positive animal/number of sensitized animal” value ([2]; sensitized 10 mg/animal s.c. 3 times, elicited with iodinated GSA 1 mg/animal i.v.) of the same molecule?
**A.** 0/5

**Q.** What about the “ASA reaction (in words)” value ([2]; sensitized group) of the same molecule?
**A.** negative in all animals

**Q.** What about the “PCA reaction (in words)” value ([3]; sensitized group) of the same molecule?
**A.** negative in all animals

**Q.** What about the “Anti-iodine antibody production / sensitization antigenicity (in words)” value ([3]; sensitized guinea-pigs, from ASA and PCA reactions) of the same molecule?
**A.** no anti-iodine antibody was produced

**Q.** And the “PCA reaction: number of positive animal/number of sensitized animal” value ([3]; serum diluted fivefold, 0.1 ml/site, iodinated GSA 1 mg/animal i.v., positive = blue spot 5 mm or larger)?
**A.** 0/5

**Q.** What about the IC50 [4] of the same molecule?
**A.** 125 µM
